Test results published in patent publication EP4570800A1, “CRYSTAL FORM OF PYRIDINOPYRIMIDINONE COMPOUND, ACID SALT THEREOF, CRYSTAL FORM OF ACID SALT THEREOF, AND USE” (Wuhan Humanwell Innovative Drug Research and Development …, priority 2022, dated 2024).

Biological target: T1, KRAS G12C::SOS1 (Homo sapiens, UniProt Q07889)
T1 sequence (Q07889 564-1049 limits assumed): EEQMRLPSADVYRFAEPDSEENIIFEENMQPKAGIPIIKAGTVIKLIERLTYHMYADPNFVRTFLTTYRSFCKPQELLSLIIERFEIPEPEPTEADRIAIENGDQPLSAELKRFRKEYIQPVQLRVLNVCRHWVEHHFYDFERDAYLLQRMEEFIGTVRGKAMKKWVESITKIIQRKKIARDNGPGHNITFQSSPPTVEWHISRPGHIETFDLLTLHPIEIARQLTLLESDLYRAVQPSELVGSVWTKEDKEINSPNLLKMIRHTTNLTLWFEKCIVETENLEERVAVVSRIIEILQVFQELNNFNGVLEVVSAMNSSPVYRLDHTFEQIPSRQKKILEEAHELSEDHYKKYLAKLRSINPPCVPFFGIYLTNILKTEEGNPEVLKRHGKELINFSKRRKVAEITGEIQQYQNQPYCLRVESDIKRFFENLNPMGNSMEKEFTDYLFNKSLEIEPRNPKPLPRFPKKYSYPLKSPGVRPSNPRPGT
Experiment: Inhibition of KRAS G12C::SOS1 binding (anti-6his-Tb / anti-GST-XL665 fluorescence ratio)
Details: GST-KRAS G12C and His-SOS1

Cc1nc(N[C@H](C)c2cccc(S(F)(F)(F)(F)F)c2)c2cn(C3(CF)CC3)c(=O)cc2n1 [Compound of formula I, (R)-6-(1-(fluoromethyl)cyclopropyl)-2-methyl-4-((1-(3-(pentafluorosulfanyl)phenyl)ethyl)amino)pyrido[4,3-d]pyrimidin-7(6H)-one]
IC50: 3.94 nM
